The values below come from patent publication US20110160272A1, “METHODS AND COMPOSITIONS FOR USE OF ANGIOGENESIS INHIBITORS IN THE PREVENTION AND/OR CONTROL OF EPILEPSY” (priority 2004, published 2011).

For the assay, the system named is KASE rats. The assay is described as follows: Effect of angiogenesis inhibitor on spontaneous seizure development after kainic acid-induced status epilepticus (KASE). The following applies: KASE rats (n=4); twice daily injections for fourteen consecutive days beginning one week following KASE; first three weeks of monitoring, daily 8-hour observation sessions; relative to untreated KASE or control rats. The format is in vivo, rat. An excerpt: We have administered HET0016, an inhibitor of angiogenesis, during the “latent period” that follows KASE and precedes the emergence of spontaneous seizures, to assess whether the development of spontaneous seizures could be impeded. Optimal doses for achieving antiangiogenesis have been established for some of these compounds in other pathological contexts and we have acquired some knowledge of the progression of angiogenesis following KASE using our temporal BrdU assay. On the basis of these observations, we administered a proven antiangiogenic compound at the optimal dosage established in other pathological contexts. This compound was administered to KASE rats (n=4) via twice daily injections for fourteen consecutive days, beginning one week following KASE. Four untreated KASE rats (n=4) received sham injections of diluent and were processed in parallel. Control rats (n=2) received neither KASE nor antiangiogenic therapy. The occurrence of spontaneous seizures in these cohorts was monitored during daily during 8-hour observation sessions beginning one week following KASE, and continues to the present.

With `CCCCc1ccc(N=CNO)c(C)c1` [HET0016], the “development of spontaneous seizures (cumulative seizures, FIG. 7)” value is reported as “impeded the development of spontaneous seizures”.
